How the values were obtained:
[1] = Cytotoxicity against human fibroblasts assessed as cell viability by microplate reader; assay type: cell-based, Fibroblast; conditions: read-out: TD50 (the source's name)
Toxoplasma gondii [2] = test: Antiparasitic activity against Toxoplasma gondii ATCC 50839 infected in human fibroblasts assessed as inhibition of replication of tachyzoites after 4 days by bacterial beta-galactosidase assay; assay type: functional; conditions: ATCC 50839, 96 h, read-out: ID50 (the source's name)
[3] = Therapeutic index, ratio of TD50 for human fibroblast cell to ID 50 for Toxoplasma gondii ATCC 50839; assay type: cell-based; conditions: human fibroblast cells, read-out: TI
Toxoplasma gondii [4] = test: Ratio of trimethoprim ID50 to compound ID50 for Toxoplasma gondii ATCC 50839; assay type: functional

| Compound | CC50 [1] [µM] | IC50 (Toxoplasma gondii [2]) [nM] | selectivity ratio [3] | Ratio (Toxoplasma gondii [4]) |
| --- | --- | --- | --- | --- |
| CCCCCCCOc1c(OC)ccc2cc3[n+](cc12)CCc1cc2c(cc1-3)OCO2 | 1.1 | 200 | 5.5 |  |
| COc1ccc2cc3[n+](cc2c1OC)CCc1cc2c(cc1-3)OCO2 [BERBERINE] | 0.85 | 580 | 1.5 | 30 |
| COc1cc(Cc2cnc(N)nc2N)cc(OC)c1OC [TRIMETHOPRIM] | > 500 | 15000 | > 3 |  |
| COc1ccc2cc3n(c(=O)c2c1OC)CCc1cc2c(cc1-3)OCO2 [OXYBERBERINE] | 97 | 12000 | 8 |  |
| CCCC(=O)Oc1c(OC)ccc2cc3[n+](cc12)CCc1cc2c(cc1-3)OCO2 | 135 | 68 | 2000 |  |
| CCCCCOc1c(OC)ccc2cc3[n+](cc12)CCc1cc2c(cc1-3)OCO2 | 5.9 | 1800 | 3 |  |
| CCOc1c(OC)ccc2cc3[n+](cc12)CCc1cc2c(cc1-3)OCO2 | 9.6 | 830 | 12 |  |
| COc1ccc2cc3[n+](cc2c1OC(C)=O)CCc1cc2c(cc1-3)OCO2 | 45 | 75 | 600 |  |
| COc1ccc2c(c1OC)CN1CCc3cc4c(cc3[C@@H]1C2)OCO4 [CANADINE] | 210 | 8700 | 24 |  |
| CCCCCC(=O)Oc1c(OC)ccc2cc3[n+](cc12)CCc1cc2c(cc1-3)OCO2 | 145 | 36 | 4000 |  |
| COc1ccc2c(c1OC)C(C)N1CCc3cc4c(cc3C1=C2)OCO4 (stereo not given) | 12 | 4200 | 3 |  |
| COc1ccc2c(c1OC)CN1CCc3cc4c(cc3C1=C2)OCO4 [DIHYDROBERBERINE] | 41 | 650 | 63 |  |
| COc1ccc2cc3[n+](cc2c1O)CCc1cc2c(cc1-3)OCO2 [BERBERRUBINE] | 81 | 60 | 1300 |  |

— ChEMBL document CHEMBL2016442, “Structure-activity studies of some berberine analogs as inhibitors of Toxoplasma gondii” (Bioorg Med Chem Lett, 2012)
